According to ChEMBL document CHEMBL3885881, “DrugMatrix”:

Organism: Rattus norvegicus
Assay: DrugMatrix - Regimen: Daily Repeat
Format: toxicity, organism-based, Sprague-Dawley
Set-up: regimen Daily Repeat, gender Male, age 6-8 weeks
Settings: in vivo, po, route oral GAVAGE, […]; for ABSOLUTE BASOPHIL / ABSOLUTE EOSINOPHIL / ABSOLUTE LYMPHOCYTE / ABSOLUTE MONOCYTE / ABSOLUTE SEGMENTED NEUTROPHIL / BASOPHIL / EOSINOPHIL / ERYTHROCYTE COUNT / HEMATOCRIT / HEMOGLOBIN / LEUKOCYTE COUNT / LYMPHOCYTE / MEAN CORPUSCULAR HEMOGLOBIN / MEAN CORPUSCULAR HEMOGLOBIN CONCENTRATION / MEAN CORPUSCULAR VOLUME / MONOCYTE / NEUTROPHIL / NUCLEATED RED BLOOD CELLS / PLATELET COUNT: tissue Blood; for ALANINE AMINOTRANSFERASE / ALBUMIN / ALKALINE PHOSPHATASE / ASPARTATE AMINOTRANSFERASE / BLOOD UREA NITROGEN / CARBON DIOXIDE / CHLORIDE / CHOLESTEROL / CREATINE PHOSPHOKINASE / CREATININE / GLUCOSE / LACTATE DEHYDROGENASE / LIPASE / PHOSPHORUS / POTASSIUM / SODIUM / TOTAL BILIRUBIN / TOTAL PROTEIN / URIC ACID: tissue Plasma
[1] = 0 mg/kg, 72 h, dose level Control, time 3 day
[2] = 0 mg/kg, 120 h, dose level Control, time 5 day
[3] = 59 mg/kg, 72 h, dose level Low, time 3 day
[4] = 59 mg/kg, 120 h, dose level Low, time 5 day

Oc1c(Cl)cc(Cl)cc1Sc1cc(Cl)cc(Cl)c1O [BITHIONOL]
ABSOLUTE BASOPHIL [1]: 0 CELLS/uL
ABSOLUTE EOSINOPHIL [1]: 33 CELLS/uL
ABSOLUTE LYMPHOCYTE [1]: 9048.5 CELLS/uL
ABSOLUTE MONOCYTE [1]: 80.17 CELLS/uL
ABSOLUTE SEGMENTED NEUTROPHIL [1]: 1521.67 CELLS/uL
BASOPHIL [1]: 0%
EOSINOPHIL [1]: 0.17%
ERYTHROCYTE COUNT [1]: 5.46 x10E6/uL
HEMATOCRIT [1]: 32.87%
HEMOGLOBIN [1]: 12.95 G/DL
LEUKOCYTE COUNT [1]: 10.68 x10E3/uL
LYMPHOCYTE [1]: 86.67%
MEAN CORPUSCULAR HEMOGLOBIN [1]: 23.72 pg
MEAN CORPUSCULAR HEMOGLOBIN CONCENTRATION [1]: 39.4 G/DL
MEAN CORPUSCULAR VOLUME [1]: 60.18 fL
MONOCYTE [1]: 0.83%
NEUTROPHIL [1]: 12.33%
NUCLEATED RED BLOOD CELLS [1]: 0 /100WBC
PLATELET COUNT [1]: 1211.33 x10E3/uL
ALANINE AMINOTRANSFERASE [1]: 76.67 u/L
ALBUMIN [1]: 3.93 G/DL
ALKALINE PHOSPHATASE [1]: 317.17 u/L
ASPARTATE AMINOTRANSFERASE [1]: 81.17 u/L
BLOOD UREA NITROGEN [1]: 12.33 mg/dL
CARBON DIOXIDE [1]: 31.17 mmol/L
CHLORIDE [1]: 98.33 MEQ/L
CHOLESTEROL [1]: 67.17 mg/dL
CREATINE PHOSPHOKINASE [1]: 312.33 u/L
CREATININE [1]: 0.19 mg/dL
GLUCOSE [1]: 165.5 mg/dL
LACTATE DEHYDROGENASE [1]: 94.5 u/L
LIPASE [1]: 9.83 u/L
PHOSPHORUS [1]: 10.1 mg/dL
POTASSIUM [1]: 5.16 MEQ/L
SODIUM [1]: 143.02 MEQ/L
TOTAL BILIRUBIN [1]: 0.2 mg/dL
TOTAL PROTEIN [1]: 5.88 G/DL
URIC ACID [1]: 0.68 mg/dL
ABSOLUTE BASOPHIL [2]: 0 CELLS/uL
ABSOLUTE EOSINOPHIL [2]: 14.67 CELLS/uL
ABSOLUTE LYMPHOCYTE [2]: 9629.83 CELLS/uL
ABSOLUTE MONOCYTE [2]: 72.5 CELLS/uL
ABSOLUTE SEGMENTED NEUTROPHIL [2]: 1049.67 CELLS/uL
BASOPHIL [2]: 0%
EOSINOPHIL [2]: 0.17%
ERYTHROCYTE COUNT [2]: 5.36 x10E6/uL
HEMATOCRIT [2]: 33.82%
HEMOGLOBIN [2]: 13.48 G/DL
LEUKOCYTE COUNT [2]: 10.77 x10E3/uL
LYMPHOCYTE [2]: 90.17%
MEAN CORPUSCULAR HEMOGLOBIN [2]: 25.28 pg
MEAN CORPUSCULAR HEMOGLOBIN CONCENTRATION [2]: 39.92 G/DL
MEAN CORPUSCULAR VOLUME [2]: 63.3 fL
MONOCYTE [2]: 0.67%
NEUTROPHIL [2]: 9%
NUCLEATED RED BLOOD CELLS [2]: 0.17 /100WBC
PLATELET COUNT [2]: 1275.33 x10E3/uL
ALANINE AMINOTRANSFERASE [2]: 93.67 u/L
ALBUMIN [2]: 4.17 G/DL
ALKALINE PHOSPHATASE [2]: 402.5 u/L
ASPARTATE AMINOTRANSFERASE [2]: 122.83 u/L
BLOOD UREA NITROGEN [2]: 14.75 mg/dL
CARBON DIOXIDE [2]: 26.4 mmol/L
CHLORIDE [2]: 98.5 MEQ/L
CHOLESTEROL [2]: 57.5 mg/dL
CREATINE PHOSPHOKINASE [2]: 305.17 u/L
CREATININE [2]: 0.21 mg/dL
GLUCOSE [2]: 142 mg/dL
LACTATE DEHYDROGENASE [2]: 83.5 u/L
LIPASE [2]: 85.83 u/L
PHOSPHORUS [2]: 8.18 mg/dL
POTASSIUM [2]: 5.46 MEQ/L
SODIUM [2]: 144 MEQ/L
TOTAL BILIRUBIN [2]: 0.25 mg/dL
TOTAL PROTEIN [2]: 5.63 G/DL
URIC ACID [2]: 0.8 mg/dL
ABSOLUTE BASOPHIL [3]: 0 CELLS/uL
ABSOLUTE EOSINOPHIL [3]: 0 CELLS/uL
ABSOLUTE LYMPHOCYTE [3]: 6654 CELLS/uL
ABSOLUTE MONOCYTE [3]: 41.33 CELLS/uL
ABSOLUTE SEGMENTED NEUTROPHIL [3]: 671.33 CELLS/uL
BASOPHIL [3]: 0%
EOSINOPHIL [3]: 0%
ERYTHROCYTE COUNT [3]: 5.26 x10E6/uL
HEMATOCRIT [3]: 32.77%
HEMOGLOBIN [3]: 12.93 G/DL
LEUKOCYTE COUNT [3]: 7.37 x10E3/uL
LYMPHOCYTE [3]: 90%
MEAN CORPUSCULAR HEMOGLOBIN [3]: 24.57 pg
MEAN CORPUSCULAR HEMOGLOBIN CONCENTRATION [3]: 39.5 G/DL
MEAN CORPUSCULAR VOLUME [3]: 62.3 fL
MONOCYTE [3]: 0.67%
NEUTROPHIL [3]: 9.33%
NUCLEATED RED BLOOD CELLS [3]: 0 /100WBC
PLATELET COUNT [3]: 1231 x10E3/uL
ALANINE AMINOTRANSFERASE [3]: 78.67 u/L
ALBUMIN [3]: 4.07 G/DL
ALKALINE PHOSPHATASE [3]: 362 u/L
ASPARTATE AMINOTRANSFERASE [3]: 89.33 u/L
BLOOD UREA NITROGEN [3]: 13.67 mg/dL
CARBON DIOXIDE [3]: 31.67 mmol/L
CHLORIDE [3]: 98.67 MEQ/L
CHOLESTEROL [3]: 74.33 mg/dL
CREATINE PHOSPHOKINASE [3]: 365.67 u/L
CREATININE [3]: 0.18 mg/dL
GLUCOSE [3]: 157.67 mg/dL
LACTATE DEHYDROGENASE [3]: 123.67 u/L
LIPASE [3]: 10 u/L
PHOSPHORUS [3]: 11.23 mg/dL
POTASSIUM [3]: 6.04 MEQ/L
SODIUM [3]: 142.9 MEQ/L
TOTAL BILIRUBIN [3]: 0.17 mg/dL
TOTAL PROTEIN [3]: 5.97 G/DL
URIC ACID [3]: 0.6 mg/dL
ABSOLUTE BASOPHIL [4]: 0 CELLS/uL
ABSOLUTE EOSINOPHIL [4]: 30 CELLS/uL
ABSOLUTE LYMPHOCYTE [4]: 8041.67 CELLS/uL
ABSOLUTE MONOCYTE [4]: 31.33 CELLS/uL
ABSOLUTE SEGMENTED NEUTROPHIL [4]: 663.67 CELLS/uL
BASOPHIL [4]: 0%
EOSINOPHIL [4]: 0.33%
ERYTHROCYTE COUNT [4]: 5.55 x10E6/uL
HEMATOCRIT [4]: 33.6%
HEMOGLOBIN [4]: 13.2 G/DL
LEUKOCYTE COUNT [4]: 8.77 x10E3/uL
LYMPHOCYTE [4]: 91.67%
MEAN CORPUSCULAR HEMOGLOBIN [4]: 23.8 pg
MEAN CORPUSCULAR HEMOGLOBIN CONCENTRATION [4]: 39.27 G/DL
MEAN CORPUSCULAR VOLUME [4]: 60.53 fL
MONOCYTE [4]: 0.33%
NEUTROPHIL [4]: 7.67%
NUCLEATED RED BLOOD CELLS [4]: 0 /100WBC
PLATELET COUNT [4]: 933.33 x10E3/uL
ALANINE AMINOTRANSFERASE [4]: 82.33 u/L
ALBUMIN [4]: 4.23 G/DL
ALKALINE PHOSPHATASE [4]: 343.33 u/L
ASPARTATE AMINOTRANSFERASE [4]: 99.67 u/L
BLOOD UREA NITROGEN [4]: 14.67 mg/dL
CARBON DIOXIDE [4]: 27.67 mmol/L
CHLORIDE [4]: 102.33 MEQ/L
CHOLESTEROL [4]: 55.67 mg/dL
CREATINE PHOSPHOKINASE [4]: 348 u/L
CREATININE [4]: 0.19 mg/dL
GLUCOSE [4]: 150.67 mg/dL
LACTATE DEHYDROGENASE [4]: 104.67 u/L
LIPASE [4]: 19 u/L
PHOSPHORUS [4]: 9.53 mg/dL
POTASSIUM [4]: 5.41 MEQ/L
SODIUM [4]: 145.97 MEQ/L
TOTAL BILIRUBIN [4]: 0.23 mg/dL
TOTAL PROTEIN [4]: 5.97 G/DL
URIC ACID [4]: 0.9 mg/dL
